For 23 compounds, inhibition results are on record in paper PMC9217908, “Screening of commonly prescribed drugs for effects on the CAT1-mediated transport of L-arginine and arginine derivatives” (Amino Acids, 2022).

What all share (test): cell-based
Assay [1] concerns the target T1, CAT1 (cationic amino acid transporter 1, CAT1/SLC7A1) (Homo sapiens, UniProt P30825).
T1 construct: full-length human transporter stably transfected in HEK cells (HEK-CAT1); net uptake against HEK-VC vector control cells
Details: species or system HEK-CAT1 (HEK293 stably transfected); Inhibition of net CAT1-mediated [3H]-ADMA (1 uM) uptake, 2.5 min, scintillation counting, vector control subtracted. The conditions noted are these: HEK293, ADMA 1 uM as substrate; for inhibition at 20 µM: read-out: % Inhibition of ADMA uptake at 20 µM; for inhibition at 200 µM: read-out: % Inhibition of ADMA uptake at 200 µM. Summed up:
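HEK cells expressing CAT1 and vector-control cells took up [^3H]-L-arginine for 5 min, or [^3H]-L-homoarginine or [^3H]-ADMA (1 μM) for 2.5 min, with or without drug at 20 or 200 µM. Net CAT1 uptake was CAT1 cells minus control cells, and inhibition (%) = 100 − V/V0×100. Negative values mean stimulation; n = 6–9.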

Assay [2] addresses T1, CAT1 (cationic amino acid transporter 1, CAT1/SLC7A1). Details: species or system HEK-CAT1 (HEK293 stably transfected); Inhibition of net CAT1-mediated [3H]-L-arginine (100 uM) uptake, 5 min, scintillation counting, vector control subtracted. The note with it: HEK293, L-arginine 100 uM as substrate; for inhibition at 20 µM: read-out: % Inhibition of L-arginine uptake at 20 µM; for inhibition at 200 µM: read-out: % Inhibition of L-arginine uptake at 200 µM. Summed up: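 HEK-CAT1 and vector-control HEK-VC cells took up [3H]-L-arginine (100 μM) for 5 min, with or without drug at 20 or 200 µM; [3H]-L-homoarginine or [3H]-ADMA uptake ran 2.5 min. Net uptake is CAT1 minus VC cells, and inhibition (%) = 100 − (V/V0 × 100). Negative values mean stimulated uptake.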

Assay [3] has the same target. Details: species or system HEK-CAT1 (HEK293 stably transfected); Inhibition of net CAT1-mediated [3H]-L-homoarginine (1 uM) uptake, 2.5 min, scintillation counting, vector control subtracted. The note with it: HEK293, L-homoarginine 1 uM as substrate; for inhibition at 20 µM: read-out: % Inhibition of L-homoarginine uptake at 20 µM; for inhibition at 200 µM: read-out: % Inhibition of L-homoarginine uptake at 200 µM. The essentials:
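HEK-CAT1 cells with HEK-VC vector controls; [3H]-L-homoarginine (1 μM) uptake over 2.5 min with or without test compound at 20 µM or 200 µM. Net CAT1 uptake (CAT1 minus VC) gives inhibition (%) = 100 – (V/V0 × 100). Negative values mean stimulated uptake; n = 6–9 from at least two independent experiments.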

Where two headings read alike, the source gives them in different places.

T1 sequence (P30825 whole entry): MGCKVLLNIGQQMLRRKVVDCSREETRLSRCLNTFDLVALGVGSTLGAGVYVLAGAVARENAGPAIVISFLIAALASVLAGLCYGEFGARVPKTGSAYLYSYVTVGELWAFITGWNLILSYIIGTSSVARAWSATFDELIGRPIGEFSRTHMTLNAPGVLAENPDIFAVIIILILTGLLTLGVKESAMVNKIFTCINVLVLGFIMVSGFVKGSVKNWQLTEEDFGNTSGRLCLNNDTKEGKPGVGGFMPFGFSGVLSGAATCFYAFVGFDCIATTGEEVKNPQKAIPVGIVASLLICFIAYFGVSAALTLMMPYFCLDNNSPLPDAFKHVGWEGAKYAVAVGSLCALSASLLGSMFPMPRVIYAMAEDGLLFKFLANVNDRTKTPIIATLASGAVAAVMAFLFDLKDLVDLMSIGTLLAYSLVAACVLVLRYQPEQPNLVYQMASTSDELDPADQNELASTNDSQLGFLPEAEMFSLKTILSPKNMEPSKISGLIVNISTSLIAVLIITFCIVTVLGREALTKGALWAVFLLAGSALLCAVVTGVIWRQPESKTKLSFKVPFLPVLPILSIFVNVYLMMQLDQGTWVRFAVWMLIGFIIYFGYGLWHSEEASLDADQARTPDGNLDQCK

The term inhibition denotes the relative decrease from the control value, in per cent. For the compound `NS(=O)(=O)c1cc2c(cc1Cl)NCNS2(=O)=O` [Hydrochlorothiazide], the inhibition at 20 µM in assay [1] is 5.5 ± 2.2%; in assay [2], 6 ± 3.9%; in assay [3] it was 8.5 ± 4.8%. Besides, the inhibition at 200 µM stood at 9.9 ± 3.5% in assay [1], 20.7 ± 14.1% in assay [2] and 7.9 ± 1.2% in assay [3].

Regarding `COC(=O)[C@H](c1ccccc1Cl)N1CCc2sccc2C1` [Clopidogrel], the values for the inhibition at 20 µM in assay [1], in assay [2] and in assay [3] were -11 ± 8.1%, 6.4 ± 4.4% and 1.9 ± 5.4%, respectively. Further, the figures for the inhibition at 200 µM in assay [1], in assay [2] and in assay [3] were -8.9 ± 14.9%, 1.5 ± 4.1% and 0.8 ± 3.1%, respectively.

Turning to `CC(C)NCC(O)COc1cccc2ccccc12` (centres unmarked) [Propranolol], the inhibition at 20 µM was -27.2 ± 3.6% in assay [1], -0.9 ± 8.1% in assay [2] and -21.6 ± 0.7% in assay [3]. In addition, the inhibition at 200 µM in assay [1] is -36.3 ± 9.5%; in assay [2], -1.1 ± 7.8%; in assay [3], -3.5 ± 2.1%.

Turning to `CC12CC3CC(C)(C1)CC(N)(C3)C2` [Memantine], the figures for the inhibition at 20 µM in assay [1], in assay [2] and in assay [3] were 14.8 ± 2.6%, -3.2 ± 3.9% and -3.9 ± 3.4%, respectively. The inhibition at 200 µM in assay [1] is -9.6 ± 1.8%; in assay [2], -21.7 ± 5.1%; in assay [3], -16.6 ± 0.8%.

Take `O[C@@H](CNC[C@H](O)[C@H]1CCc2cc(F)ccc2O1)[C@@H]1CCc2cc(F)ccc2O1` (racemic) [Nebivolol]: the inhibition at 20 µM was -2.9 ± 1.7% in assay [1], 5.2 ± 3% in assay [2] and -4.6 ± 1.9% in assay [3]. The figures for the inhibition at 200 µM in assay [1], in assay [2] and in assay [3] were -6.6 ± 15.4%, 1.3 ± 2.9% and 0.3 ± 3.1%, respectively.

Consider `Clc1ccccc1CN1CCc2sccc2C1` [Ticlopidine], for which the inhibition at 20 µM in assay [1] was -11.3 ± 8.3%; in assay [2] it was 10.4 ± 4.4%; in assay [3], -4.3 ± 4.6%. The inhibition at 200 µM in assay [1] is -33.5 ± 3.3%; in assay [2], 31.7 ± 10.4%; in assay [3] it was 31.4 ± 10.1%.

Turning to `Cc1ncc([N+](=O)[O-])n1CCO` [Metronidazole], the inhibition at 20 µM was -3.1 ± 2% in assay [1], 7.7 ± 1.9% in assay [2] and -4.7 ± 2% in assay [3]. The inhibition at 200 µM in assay [1] is -16.6 ± 0.4%; in assay [2], 2.6 ± 3.7%; in assay [3] it was 0.8 ± 2.2%.

Consider `Cc1ccc(-c2ncc(Cl)cc2-c2ccc(S(C)(=O)=O)cc2)cn1` [Etorixocib], for which the inhibition at 20 µM in assay [1] is -17.2 ± 13.5%; in assay [2], 0.7 ± 3.8%; in assay [3], -5.4 ± 2.1%. In addition, the inhibition at 200 µM in assay [1] is -22.8 ± 2.2%; in assay [2], -20.7 ± 2.9%; in assay [3], 31.8 ± 4.3%.

`C=C[C@H]1CN2CC[C@H]1C[C@@H]2[C@@H](O)c1ccnc2ccc(OC)cc12` [Quinidine]: the inhibition at 20 µM in assay [1] is 4.4 ± 6.2%; in assay [2], 29.1 ± 2.8%; in assay [3], 4.4 ± 6.2%. For the same compound, the inhibition at 200 µM in assay [1] was -19.6 ± 7.7%; in assay [2] it was 2.7 ± 1%; in assay [3] it was 5.9 ± 1.9%.

For the compound `Nc1nc(NC2CC2)c2ncn([C@H]3C=C[C@@H](CO)C3)c2n1` [Abacavir], the results for the inhibition at 20 µM in assay [1], in assay [2] and in assay [3] were -4.3 ± 2.2%, -0.9 ± 1.81% and -3.1 ± 2%, respectively. For the same compound, the inhibition at 200 µM in assay [1] is -78.1 ± 1.9%; in assay [2], -12.4 ± 6%; in assay [3], -9.8 ± 1.7%.

In the case of `CCCC1O[C@@H]2C[C@H]3[C@@H]4CCC5=CC(=O)C=C[C@]5(C)[C@H]4[C@@H](O)C[C@]3(C)[C@]2(C(=O)CO)O1` (some centres unmarked) [Budesonide], the inhibition at 20 µM in assay [1] is -13.2 ± 3.7%; in assay [2] it was -9.7 ± 7.8%; in assay [3], -9.7 ± 5.5%. Also, the inhibition at 200 µM in assay [1] was -47.7 ± 6.5%; in assay [2], -6.4 ± 3.9%; in assay [3], -4.9 ± 6.5%.

As to `Oc1ncnc2[nH]ncc12` [Allopurinol], the inhibition at 20 µM in assay [1] is 16.9 ± 2.6%; in assay [2] it was 5 ± 16.4%. Also, the figures for the inhibition at 200 µM in assay [1], in assay [2] and in assay [3] were 2 ± 7%, 14.1 ± 9.6% and -2.6 ± 1.6%, respectively.

For `C[C@]12CC[C@@H]3c4ccc(O)cc4CC[C@H]3[C@@H]1CC[C@@H]2O` [Beta estradiol], the inhibition at 20 µM in assay [1] is -9.8 ± 7.2%; in assay [2], 0.3 ± 4.5%; in assay [3], -0.1 ± 4.2%. Also, the inhibition at 200 µM is -32.9 ± 6.4% in assay [1], -19.1 ± 7.2% in assay [2] and -13.7 ± 11.3% in assay [3].

Consider `C[C@]12C=CC(=O)C=C1CC[C@@H]1[C@@H]2[C@@H](O)C[C@@]2(C)[C@H]1CC[C@]2(O)C(=O)CO` [Prednisolone], for which the inhibition at 20 µM is -3.3 ± 6.9% in assay [1], 12.5 ± 4.1% in assay [2] and -11.1 ± 5.8% in assay [3]. The inhibition at 200 µM was 13.4 ± 4.7% in assay [1], -21.4 ± 1.3% in assay [2] and -16.5 ± 2.4% in assay [3].

With `N=C(N)NC(=O)c1nc(Cl)c(N)nc1N` [Amiloride], the inhibition at 20 µM in assay [1] was 1.5 ± 3.2%; in assay [2] it was -0.1 ± 9.7%; in assay [3], 1.5 ± 3.2%. Moreover, the inhibition at 200 µM was -17.1 ± 2.3% in assay [1], 10.9 ± 3.9% in assay [2] and 12.6 ± 2.6% in assay [3].

As for `CCN(CC)CCCC(C)Nc1ccnc2cc(Cl)ccc12` (centres unmarked) [Chloroquine], the results for the inhibition at 20 µM in assay [1], in assay [2] and in assay [3] were -27 ± 16.2%, -6.1 ± 1.1% and -35.1 ± 5.2%, respectively. Besides, the inhibition at 200 µM in assay [1] was -23.1 ± 8.2%; in assay [2] it was -11.4 ± 2.6%; in assay [3], -54.8 ± 6.9%.

As for `C[C@]12CCC(=O)C=C1CC[C@@H]1[C@@H]2[C@@H](O)C[C@@]2(C)[C@H]1CC[C@]2(O)C(=O)CO` [Hydrocortisone], the inhibition at 20 µM was -0.1 ± 2.8% in assay [1], 8.5 ± 4.8% in assay [2] and 13.9 ± 9.6% in assay [3]. Besides, the inhibition at 200 µM was -9.9 ± 2.7% in assay [1], -4.3 ± 2.7% in assay [2] and -9.5 ± 2.6% in assay [3].

Take `CCCC(CCC)C(=O)O` [Valproic acid]: the inhibition at 20 µM in assay [1] is -7.6 ± 4%; in assay [2], 12.6 ± 2.5%; in assay [3], 10.2 ± 1.4%. In addition, the figures for the inhibition at 200 µM in assay [1], in assay [2] and in assay [3] were -47.5 ± 6%, -3.1 ± 6.1% and -9.5 ± 5.1%, respectively.

On to `COCCc1ccc(OCC(O)CNC(C)C)cc1` (centres unmarked) [Metoprolol], for which the inhibition at 20 µM in assay [1] was -15.1 ± 7.1%; in assay [2] it was 8.1 ± 6.7%; in assay [3], -21.4 ± 3.7%. The inhibition at 200 µM in assay [1] amounted to 19.8 ± 4.1%; in assay [2], 1.3 ± 3.8%; in assay [3], 0.3 ± 2.5%.

In the case of `Nc1ccc(S(=O)(=O)c2ccc(N)cc2)cc1` [Dapsone], the inhibition at 20 µM in assay [1] was 13.4 ± 4.4%; in assay [2], -8.6 ± 4.3%; in assay [3], -9.8 ± 4.4%. The inhibition at 200 µM is -11.8 ± 3.7% in assay [1], -27.2 ± 4.2% in assay [2] and -24.7 ± 3.1% in assay [3].

With `NC(=O)N1c2ccccc2C=Cc2ccccc21` [Carbamazepine], the inhibition at 20 µM in assay [1] was 4.8 ± 2.1%; in assay [2], 17.8 ± 4.1%; in assay [3], 18.9 ± 3.5%. Also, the values for the inhibition at 200 µM in assay [1], in assay [2] and in assay [3] were 12.8 ± 4.2%, 0.7 ± 4.3% and 12.7 ± 3.9%, respectively.

As for `NCCCC[C@H](N[C@@H](CCc1ccccc1)C(=O)O)C(=O)N1CCC[C@H]1C(=O)O` [Lisinopril], the figures for the inhibition at 20 µM in assay [1], in assay [2] and in assay [3] were 1.6 ± 1.9%, 4.6 ± 3.8% and 6.4 ± 3.1%, respectively. Further, the inhibition at 200 µM was 15.7 ± 0.8% in assay [1], -12.6 ± 5% in assay [2] and -11.4 ± 3.8% in assay [3].

On to `Nc1ccn([C@@H]2CS[C@H](CO)O2)c(=O)n1` [Lamivudine], for which the inhibition at 20 µM in assay [1] was -5.3 ± 4%; in assay [2] it was 27.4 ± 4.6%; in assay [3] it was -3.4 ± 0.3%. The inhibition at 200 µM was 22.9 ± 4.9% in assay [1], -3.9 ± 4.6% in assay [2] and -3.1 ± 1.4% in assay [3].
